Measured values as given in patent US20230174538A1, “Tricyclic heterocycles” (Merck Patent GmbH, priority 2020, published 2023).

What follows are compounds tested on YAP-TEAD interaction (assay: SK-HEP-1 reporter assay (8xTEAD responsive elements driving NanoLuc luciferase)). Conditions: Homo sapiens, SK-HEP1, SK-HEP-1 reporter assay.
Assay type: cell-based
How it was run: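 SK-HEP-1 cells stably carrying an 8×TEAD-element NanoLuc reporter were treated in duplicate with 10-point dilutions from a top final 30 μM (0.3% DMSO). After 24 h at 37 °C, luciferase activity was read by luminescence with NanoGlo lysis/substrate reagent, and IC50 values were derived.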

| Structure (SMILES) | IC50 [nM] |
| --- | --- |
| Cc1ncncc1[C@@H](C)NC(=O)c1ccc2c(c1)c1cn(C)nc1n2-c1ccc(C(F)(F)F)cc1 [B118^] | 100 to 10000 |
| Cn1cc2c(n1)c1cc(S(C)(=O)=O)ccc1n2-c1ccc(C(F)(F)F)cc1 [Example 33, 7-methanesulfonyl-2-methyl-4-[4-(trifluoromethyl)phenyl]-2H,4H-pyrazolo[4,3-b]indole] | 100 to 10000 |
| Cc1[nH]ncc1CCCNC(=O)c1ccc2c(c1)c1cn(C)nc1n2-c1ccc(C(F)(F)F)cc1 [B132^] | 100 to 10000 |
| Cn1cc2c3cc(C(=O)NC[C@H]4C[C@H](n5cncn5)C4)ccc3n(-c3ccc(C(F)(F)F)cc3)c2n1 [B140^] | > 10000 |
| CC(NC(=O)c1ccc2c(c1)c1cn(C)nc1n2-c1ccc(C(F)(F)F)cc1)c1cnn(C2CC2)c1 (stereo not shown) [B109^] | > 10000 |
| Cn1cc2c3cc(C(=O)N(CCO)Cc4ccnn4C)ccc3n(-c3ccc(C(F)(F)F)cc3)c2n1 [Example B27, N-(2-hydroxyethyl)-2-methyl-N-[(1-methyl-1H-pyrazol-5-yl)methyl]-8-[4-(trifluoromethyl)phenyl]-2H,8H-pyrazolo[3,4-b]indole-5-carboxamide] | 10 to 100 |
| Cc1nc(CCCNC(=O)c2ccc3c(c2)c2cn(C)nc2n3-c2ccc(C(F)(F)F)cc2)n[nH]1 [B121^] | 100 to 10000 |
| CC(NC(=O)c1ccc2c(c1)c1cn(C)nc1n2-c1ccc(C(F)(F)F)cc1)c1nn(C)cc1O (stereo not shown) [Example B14, N-[1-(4-hydroxy-1-methyl-1H-pyrazol-3-yl)ethyl]-2-methyl-8-[4-(trifluoromethyl)phenyl]-2H,8H-pyrazolo[3,4-b]indole-5-carboxamide] | 100 to 10000 |
| Cn1cc2c3cc(C(=O)NC(CCO)c4cncs4)ccc3n(-c3ccc(C(F)(F)F)cc3)c2n1 (stereo not shown) [Example B9, N-[3-hydroxy-1-(1,3-thiazol-5-yl)propyl]-2-methyl-8-[4-(trifluoromethyl)phenyl]-2H,8H-pyrazolo[3,4-b]indole-5-carboxamide] | 10 to 100 |
| Cn1cc2c3cc(C(=O)NCCc4cn[nH]c4)ccc3n(-c3ccc(C(F)(F)F)cc3)c2n1 [B100^] | 1 to 10 |
| Cn1cc2c3cc(C(=O)NC4CCCN(CCF)C4)ccc3n(-c3ccc(C(F)(F)F)cc3)c2n1 (stereo not shown) [B143^] | > 10000 |
| Cn1cc2c3cc(C(=O)NC4COCC4C4CC4)ccc3n(-c3ccc(C(F)(F)F)cc3)c2n1 (stereo not shown) [B133^] | 10 to 100 |
| Cn1cc2c3cc(C(=O)NCCc4nc(C5CC5)n[nH]4)ccc3n(-c3ccc(C(F)(F)F)cc3)c2n1 [Example B28, N-[2-(3-cyclopropyl-1H-1,2,4-triazol-5-yl)ethyl]-2-methyl-8-[4-(trifluoro-methyl)phenyl]-2H,8H-pyrazolo[3,4-b]indole-5-carboxamide] | 100 to 10000 |
| Cn1cc2c3cc(C(=O)O)ccc3n(-c3ccc(Cl)cc3)c2n1 [Example 13, 8-(4-chlorophenyl)-2-methyl-2H,8H-pyrazolo[3,4-b]indole-5-carboxylic acid] | 100 to 10000 |
| Cn1cc2c3cc(C(=O)NC[C@@H]4C[C@H]4C4CCOCC4)ccc3n(-c3ccc(C(F)(F)F)cc3)c2n1 [B116^] | > 10000 |
| O=C(O)c1ccc2c(c1)c1cn(Cc3ccccc3)cc1n2S(=O)(=O)c1ccccc1 [Example 1, 4-(benzenesulfonyl)-2-benzyl-2H,4H-pyrrolo[3,4-b]indole-7-carboxylic acid] | 100 to 10000 |
| Cn1cc2c3cc(C(=O)N[C@@H]4C[C@H](O)[C@H]4n4cccn4)ccc3n(-c3ccc(C(F)(F)F)cc3)c2n1 (relative stereo) [Example B26, N-[(1R,2S,3S)-3-hydroxy-2-(1H-pyrazol-1-yl)cyclobutyl]-2-methyl-8-[4-(trifluoromethyl)phenyl]-2H,8H-pyrazolo[3,4-b]indole-5-carboxamide] | 100 to 10000 |
| Cn1cc2c3cc(C(=O)NC[C@@H]4C[C@H]4c4ccco4)ccc3n(-c3ccc(C(F)(F)F)cc3)c2n1 [B128^] | 100 to 10000 |
| Cn1cc2c3cc(C(=O)NCCc4noc(C5CC5)n4)ccc3n(-c3ccc(C(F)(F)F)cc3)c2n1 [B125^] | 100 to 10000 |
| Cn1cc2c3cc(C(=O)NC4(c5ccncc5F)CC4)ccc3n(-c3ccc(C(F)(F)F)cc3)c2n1 [B127^] | 100 to 10000 |
| Cn1cc2c3cc(C(=O)NCCc4c[nH]nn4)ccc3n(-c3ccc(C(F)(F)F)cc3)c2n1 [Example B11, 2-methyl-N-[2-(1H-1,2,3-triazol-4-yl)ethyl]-8-[4-(trifluoromethyl)phenyl]-2H,8H-pyrazolo[3,4-b]indole-5-carboxamide] | 10 to 100 |
| Cn1cc2c3cc(C(=O)O)ccc3n(-c3cccc(F)c3)c2n1 [Example 7, 8-(3-fluorophenyl)-2-methyl-2H,8H-pyrazolo[3,4-b]indole-5-carboxylic acid] | 10 to 100 |
| Cc1nc(CNC(=O)c2ccc3c(c2)c2cn(C)nc2n3-c2ccc(C(F)(F)F)cc2)n[nH]1 [B144^] | 10 to 100 |
| Cn1cc2c3cc(C(=O)NC(C4CC4)C4COCCO4)ccc3n(-c3ccc(C(F)(F)F)cc3)c2n1 (stereo not shown) [B115^] | 100 to 10000 |
| Cn1cc2c3cc(C(=O)N4CC(c5ocnc5CO)C4)ccc3n(-c3ccc(C(F)(F)F)cc3)c2n1 [Example B30, [5-(1-{2-methyl-8-[4-(trifluoro-methyl)phenyl]-2H,8H-pyrazolo[3,4-b]indole-5-carbonyl}azetidin-3-yl)-1,3-oxazol-4-yl]methanol] | > 10000 |

Further lines, results first:

| IC50 [nM] | Structure (SMILES) |
| --- | --- |
| 100 to 10000 | CC(CCc1ccccn1)NC(=O)c1ccc2c(c1)c1cn(C)nc1n2-c1ccc(C(F)(F)F)cc1 (stereo not shown) [Example B79, 2-methyl-N-[4-(pyridin-2-yl)butan-2-yl]-8-[4-(trifluoromethyl)phenyl]-2H,8H-pyrazolo[3,4-b]indole-5-carboxamide] |
| 10 to 100 | CC(NC(=O)c1ccc2c(c1)c1cn(C)nc1n2-c1ccc(C(F)(F)F)cc1)c1cc[nH]n1 (stereo not shown) [Example B39, 2-methyl-N-[1-(lH-pyrazol-5-yl)ethyl]-8-[4-(trifluoromethyl)phenyl]-2H,8H-pyrazolo[3,4-b]indole-5-carboxamide] |
| 1 to 10 | Cn1cc2c3cc(C(=O)NCC4=CCOCC4)ccc3n(-c3ccc(C(F)(F)F)cc3)c2n1 [Example B58, N-[(3,6-dihydro-2H-pyran-4-yl)methyl]-2-methyl-8-[4-(trifluoromethyl)phenyl]-2H,8H-pyrazolo[3,4-b]indole-5-carboxamide] |
| 100 to 10000 | CCn1nnc(C)c1CNC(=O)c1ccc2c(c1)c1cn(C)nc1n2-c1ccc(C(F)(F)F)cc1 [Example B96, N-[(1-ethyl-4-methyl-1H-1,2,3-triazol-5-yl)methyl]-2-methyl-8-[4-(trifluoromethyl)phenyl]-2H,8H-pyrazolo[3,4-b]indole-5-carboxamide] |
| 10 to 100 | Cn1cc2c3cc(C(=O)NC(c4cccnc4)C4CC4)ccc3n(-c3ccc(C(F)(F)F)cc3)c2n1 (stereo not shown) [Example B55, N-[cyclopropyl(pyridin-3-yl)methyl]-2-methyl-8-[4-(trifluoromethyl)phenyl]-2H,8H-pyrazolo[3,4-b]indole-5-carboxamide] |
| > 10000 | Cc1noc(CC2(NC(=O)c3ccc4c(c3)c3cn(C)nc3n4-c3ccc(C(F)(F)F)cc3)CC2)n1 [Example B77, 2-methyl-N-{1-[(3-methyl-1,2,4-oxadiazol-5-yl)methyl]cyclopropyl}-8-[4-(trifluoromethyl)phenyl]-2H,8H-pyrazolo[3,4-b]indole-5-carboxamide] |
| 100 to 10000 | CC1CN(CCNC(=O)c2ccc3c(c2)c2cn(C)nc2n3-c2ccc(C(F)(F)F)cc2)CCO1 (stereo not shown) [Example B78, 2-methyl-N-[2-(2-methylmorpholin-4-yl)ethyl]-8-[4-(trifluoromethyl)phenyl]-2H,8H-pyrazolo[3,4-b]indole-5-carboxamide] |
| 100 to 10000 | Cn1cc2c3cc(C(=O)N4CCCC4C4CCCO4)ccc3n(-c3ccc(C(F)(F)F)cc3)c2n1 (stereo not shown) [Example B48, 1-{2-methyl-8-[4-(trifluoromethyl)phenyl]-2H,8H-pyrazolo[3,4-b]indole-5-carbonyl}-2-(oxolan-2-yl)pyrrolidine] |
| > 10000 | Cn1cc2c3cc(C(=O)N4CC(F)(F)CC4(C)CO)ccc3n(-c3ccc(C(F)(F)F)cc3)c2n1 (stereo not shown) [Example B35, (4,4-difluoro-2-methyl-1-{2-methyl-8-[4-(trifluoromethyl)phenyl]-2H,8H-pyrazolo[3,4-b]indole-5-carbonyl}pyrrolidin-2-yl)methanol] |
| 100 to 10000 | COCC1CCN(C(=O)c2ccc3c(c2)c2cn(C)nc2n3-c2ccc(C(F)(F)F)cc2)C1 (stereo not shown) [Example B51, 3-(methoxymethyl)-1-{2-methyl-8-[4-(trifluoromethyl)phenyl]-2H,8H-pyrazolo[3,4-b]indole-5-carbonyl}pyrrolidine] |
| > 10000 | CN(Cc1conc1C1CC1)C(=O)c1ccc2c(c1)c1cn(C)nc1n2-c1ccc(C(F)(F)F)cc1 [Example B88, N-[(3-cyclopropyl-1,2-oxazol-4-yl)methyl]-N,2-dimethyl-8-[4-(trifluoromethyl)phenyl]-2H,8H-pyrazolo[3,4-b]indole-5-carboxamide] |
| 100 to 10000 | COCC1(C)CCCN1C(=O)c1ccc2c(c1)c1cn(C)nc1n2-c1ccc(C(F)(F)F)cc1 (stereo not shown) [Example B89, 2-(methoxymethyl)-2-methyl-1-{2-methyl-8-[4-(trifluoromethyl)phenyl]-2H,8H-pyrazolo[3,4-b]indole-5-carbonyl}pyrrolidine] |
| > 10000 | CN1CCN(C(=O)c2ccc3c(c2)c2cn(C)nc2n3-c2ccc(C(F)(F)F)cc2)CC1CO (stereo not shown) [Example B65, (1-methyl-4-{2-methyl-8-[4-(trifluoromethyl)phenyl]-2H,8H-pyrazolo[3,4-b]indole-5-carbonyl}piperazin-2-yl)methanol] |
| 100 to 10000 | Cn1cc2c3cc(C(=O)N[C@@H]4[C@H](O)[C@@H]5CCC[C@@H]54)ccc3n(-c3ccc(C(F)(F)F)cc3)c2n1 (relative stereo) [Example B43, N-[(1R,5S,6S,7R)-7-hydroxy-bicyclo[3.2.0]heptan-6-yl]-2-methyl-8-[4-(trifluoromethyl)phenyl]-2H,8H-pyrazolo[3,4-b]indole-5-carboxamide] |
| 100 to 10000 | Cc1cnn(CC(C)NC(=O)c2ccc3c(c2)c2cn(C)nc2n3-c2ccc(C(F)(F)F)cc2)c1 (stereo not shown) [Example B66, 2-methyl-N-[1-(4-methyl-1H-pyrazol-1-yl)propan-2-yl]-8-[4-(trifluoromethyl)phenyl]-2H,8H-pyrazolo[3,4-b]indole-5-carboxamide] |
